# Data: US9119396B2, “Method for promoting plant growth” (SUMITOMO CHEMICAL COMPANY, LIMITED, priority 2011, dated 2015)
# What was measured:
# Assay type in all cases: in vivo
# [1] = tested on: Wheat (cultivar: Apogee); experiment: Test Example 7: reduction of high-temperature stress by spraying treatment of wheat; settings: spray solution 100 ppm, high-temperature stress 36° C./32° C. 7 days, 60 days after sowing
# Experimental: Evaluation Test for Reduction of High-Temperature Stress by Spraying Treatment of Wheat
# Five wheat seeds were sown in the culture soil (AISAI) in each plastic pot and cultivated for 28 days in an artificial weather control room under the conditions of a temperature of 18° C. in daytime/15° C. in night, and an illuminance of 7,000 lux. Before the stress test, 3 individuals per pot were removed.
# To 0.5 mg of the present compound 1 were added 120 mg of a mixture (weight ratio 1:1) of white carbon and ammonium polyoxyethylene alkyl ether sulfate and 300 μl of water. The mixture was finely ground by a wet grinding method to obtain a flowable formulation of the present compound 1. This flowable formulation was diluted with […] of water. The mixture was diluted with RINO (manufactured by NIHON NOHYAKU CO., LTD) as a spreading agent to 5,000-fold dilution to obtain a spray solution containing 100 ppm of the present compound 1. […]
# After the high-temperature stress treatment, the plants were cultivated in an artificial weather control room under the conditions of a temperature of 18° C. in daytime/15° C. in night, and a illuminance of 7,000 lux. Then, 60 days after the sowing, the fresh weight of seeds in ears of the tested plants in 7 or 8 pots were measured, and the average values of the weight of seeds of ears per one pot (3 individuals) were calculated. […]
# [2] = tested on: Rice (cultivar: Nipponbare); experiment: Test Example 11: reduction of drought stress by treatment of rice seeds; settings: rice seed treatment, 100 g per 100 kg of seeds; drought stress 2 days, then 14 days cultivation
# Experimental: Evaluation Test for Reduction of Drought Stress by Treatment of Rice Seeds Rice (cultivar: Nipponbare) A blank slurry solution containing 5% (V/V) color coat red (Becker Underwood, Inc.), 5% (V/V) CF-Clear (Becker Underwood, Inc.) and 1% Maxim XL (Syngenta) was prepared. A slurry solution was prepared by dissolving the present compound 1 in the blank slurry solution such that 100 g of the compound is applied to each 100 kg of rice seeds. In a 50-ml centrifuge tube (manufactured by AGC TECHNO GLASS CO., LTD.), 0.3 ml of the slurry solution was placed for each 10 g of rice seeds and stirred until the solution was dried, thereby coating the seeds. In addition, seeds were coated with the blank slurry solution and used as seeds for a non-treated group. A filter paper was placed on the holes of a plug tray having 406 holes, and the rice seeds treated above were sown on the filter paper. […] Fourteen (14) days after the treatment, the fresh weight of the overground parts of five test plants in each treated group was measured. The experiment was performed in three replications in each treated group and the average value was calculated. […]
# [3] = tested on: Benthamiana tobacco (Nicotiana benthamiana); experiment: Test Example 9: reduction of low-temperature stress in hydroponics of tobacco; settings: tobacco seedlings, medium with 0.1 ppm compound for 7 days; low-temperature stress 1.5±1.0° C. 7 days, then 3 days at 22° C.
# Experimental: Evaluation Test for Reduction of Low-Temperature Stress in Hydroponics of Tobacco (Nicotiana benthamiana) Benthamiana tobacco (Nicotiana benthamiana) DMSO solutions containing each of the present compounds 1, 4 and 5 at a concentration of 100 ppm were prepared. […] These media were used in the treated-group. In a non-treated group, a medium obtained by adding a 1/1,000 volume of DMSO to a Murashige-and-Skoog medium at ½ concentration was used. The seeds of tobacco (Nicotiana benthamiana) were sown on 5 μL of the medium, and incubated at 22° C. overnight. Thereto was added 45 μL of a medium containing each present compound at a concentration of 0.1 ppm, and cultivated for 7 days under the conditions of an illuminance of 4,000 lux, a temperature of 22° C. and a day length of 16 hours, thereby treating the seedlings of tobacco (Nicotiana benthamiana) with the test compound. In the non-treated group, 45 μL of a medium obtained by adding a 1/1,000 volume of DMSO to a Murashige-and-Skoog medium at ½ concentration was added, and treated in the same manner as above. The seedlings of tobacco (Nicotiana benthamiana) treated with the present compounds were cultivated for 7 days under the conditions of an illuminance of 2,000 lux, a temperature of 1.5±1.0° C., and a day length of 16 hours, thereby subjecting to low-temperature stress treatment. The plants of tobacco (Nicotiana benthamiana) subjected to low-temperature stress treatment was cultivated for 3 days under the conditions of an illuminance of 4,000 lux, a temperature of 22° C., and a day length of 16 hours, and then the green leaf area of the plants was visually evaluated. Completely dead plant was scored as 0, the plant without low-temperature stress treatment was scored as 5, the green area was rated on a 6-point scale in ⅕ increments, and the score of not less than 1 was regarded as effective in reducing the stress. As a result of visual evaluation, the green leaf area of plants in the treated group, wherein the plants were treated with the present compound 1, 4 or 5 was much larger than that in the non-treated group.
compound,measurement,setting,value
COC(=O)c1cc2cc(C(F)(F)F)ccc2s1 [compound 1],fresh weight of seeds of ears vs non-treated group,[1],much larger
same,fresh weight of the overground part of plants vs non-treated group,[2],much heavier
same,green leaf area of plants (visual evaluation) vs non-treated group,[3],much larger
